Holding throughout (test): biochemical
What all share (design): KINOMEscan scanMAX active site-directed competition binding assay, percent of control, 468 kinases
Common to all, as to settings: competition binding, percent of control

Test [1] concerns the target NEK7 (Homo sapiens, UniProt Q8TDX7). In short, it runs like this:
(§1)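 Single-concentration screen (100 μM S-carvone) in a competition binding panel of 468 human kinases (KINOMEscan scanMAX); results given as percent of control, hit cutoff 35%.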

For test [2], the target named is PDGFRB (Homo sapiens, UniProt P09619). In short, it runs like this:
as §1

Test [3] has as its target HIPK3 (Homo sapiens, UniProt Q9H422). The method, boiled down:
as §1

Test [4] deals with LIMK2 (Homo sapiens, UniProt P53671). The method, boiled down:
as §1

For test [5], the target named is CSNK1G3 (Homo sapiens, UniProt Q9Y6M4). In short, it runs like this: as §1
Sequence of CSNK1G3 (Q9Y6M4 whole entry): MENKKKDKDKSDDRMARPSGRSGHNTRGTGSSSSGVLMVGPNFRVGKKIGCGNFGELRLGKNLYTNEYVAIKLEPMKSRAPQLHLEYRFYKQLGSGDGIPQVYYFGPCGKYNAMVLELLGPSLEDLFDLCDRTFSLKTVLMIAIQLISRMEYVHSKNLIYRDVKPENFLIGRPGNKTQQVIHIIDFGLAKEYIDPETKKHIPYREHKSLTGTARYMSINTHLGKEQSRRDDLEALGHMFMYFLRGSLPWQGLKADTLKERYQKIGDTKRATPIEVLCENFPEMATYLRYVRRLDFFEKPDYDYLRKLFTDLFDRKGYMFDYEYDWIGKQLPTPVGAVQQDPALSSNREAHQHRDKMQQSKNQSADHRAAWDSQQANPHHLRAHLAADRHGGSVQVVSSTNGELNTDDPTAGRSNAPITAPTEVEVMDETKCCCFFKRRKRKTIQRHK
In test [6] the target is NEK3 (Homo sapiens, UniProt P51956). The method, boiled down:
as §1

For test [7], the target named is T1, PIK4CB (Homo sapiens, UniProt Q9UBF8).
T1 construct: gene PI4KB
The method, boiled down:
as §1

The target in test [8] is T2, CDC2L5 (Homo sapiens, UniProt Q14004).
T2 construct: gene CDK13
In short, it runs like this:
as §1

In test [9] the target is ERBB3 (Homo sapiens, UniProt P21860). The method, boiled down:
as §1

In test [10] the target is T3, IKK-beta (Homo sapiens, UniProt O14920).
T3 construct: gene IKBKB
In short, it runs like this: as §1

Test [11] addresses NEK6 (Homo sapiens, UniProt Q9HC98). In short, it runs like this:
as §1

Test [12] concerns the target T4, DCAMKL1 (Homo sapiens, UniProt O15075).
T4 construct: gene DCLK1
In short, it runs like this:
as §1

Test [13] concerns the target MST1R (Homo sapiens, UniProt Q04912). The method, boiled down:
as §1

Test [14] deals with CAMK1G (Homo sapiens, UniProt Q96NX5). The method, boiled down: as §1
The target in test [15] is T5, CDC2L2 (Homo sapiens, UniProt Q9UQ88).
T5 construct: gene CDK11A
In short, it runs like this:
as §1

Test [16] addresses ALK(L1196M) (Homo sapiens, UniProt Q9UM73, L1196M). In short, it runs like this:
as §1

Test [17] concerns the target T6, RSK1(Kin.Dom.1-N-terminal) (Homo sapiens, UniProt Q15418).
T6 construct: gene RPS6KA1; Kin.Dom.1-N-terminal
The method, boiled down:
as §1

In test [18] the target is BRAF (Homo sapiens, UniProt P15056). In short, it runs like this:
as §1

In test [19] the target is TNK2 (Homo sapiens, UniProt Q07912). The method, boiled down:
as §1

Test [20] concerns the target T7, TRKA (Homo sapiens, UniProt P04629).
T7 construct: gene NTRK1
In short, it runs like this:
as §1

Test [21] addresses CAMK1 (Homo sapiens, UniProt Q14012). The method, boiled down:
as §1

Test [22] concerns the target ANKK1 (Homo sapiens, UniProt Q8NFD2). The method, boiled down:
as §1

Data on one compound can be found in publication PMC10174618, “Monoterpenoid aryl hydrocarbon receptor allosteric antagonists protect against ultraviolet skin damage in female mice” (Nature Communications, 2023).

Sequence of TNK2 (Q07912 whole entry): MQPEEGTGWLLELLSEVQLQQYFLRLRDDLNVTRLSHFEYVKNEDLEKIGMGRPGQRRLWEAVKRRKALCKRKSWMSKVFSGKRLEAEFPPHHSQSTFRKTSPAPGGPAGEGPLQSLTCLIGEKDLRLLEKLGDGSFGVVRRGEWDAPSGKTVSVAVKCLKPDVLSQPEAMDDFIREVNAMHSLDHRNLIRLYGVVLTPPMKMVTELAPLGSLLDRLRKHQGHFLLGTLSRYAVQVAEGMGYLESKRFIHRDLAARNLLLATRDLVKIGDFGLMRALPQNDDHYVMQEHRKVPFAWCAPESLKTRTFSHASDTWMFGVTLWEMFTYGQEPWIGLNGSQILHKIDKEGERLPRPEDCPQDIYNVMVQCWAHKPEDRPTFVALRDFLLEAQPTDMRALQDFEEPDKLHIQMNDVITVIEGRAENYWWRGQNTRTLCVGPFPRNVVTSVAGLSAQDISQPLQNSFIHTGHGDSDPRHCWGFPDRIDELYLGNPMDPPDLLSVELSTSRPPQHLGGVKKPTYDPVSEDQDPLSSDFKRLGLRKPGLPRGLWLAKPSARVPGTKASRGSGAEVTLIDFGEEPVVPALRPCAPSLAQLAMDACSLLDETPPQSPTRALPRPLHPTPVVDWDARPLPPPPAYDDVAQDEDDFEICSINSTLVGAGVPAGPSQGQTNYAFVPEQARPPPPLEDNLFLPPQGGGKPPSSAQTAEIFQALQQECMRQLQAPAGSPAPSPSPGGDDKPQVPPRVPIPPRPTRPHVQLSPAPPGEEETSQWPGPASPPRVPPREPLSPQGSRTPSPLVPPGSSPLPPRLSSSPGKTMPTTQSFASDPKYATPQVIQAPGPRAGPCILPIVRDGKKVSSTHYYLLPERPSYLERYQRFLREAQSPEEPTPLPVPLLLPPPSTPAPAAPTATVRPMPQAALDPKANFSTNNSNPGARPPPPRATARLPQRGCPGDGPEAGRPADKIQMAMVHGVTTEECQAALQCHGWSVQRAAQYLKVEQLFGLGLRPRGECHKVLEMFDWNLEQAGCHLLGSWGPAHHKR
Sequence of CAMK1 (Q14012 whole entry): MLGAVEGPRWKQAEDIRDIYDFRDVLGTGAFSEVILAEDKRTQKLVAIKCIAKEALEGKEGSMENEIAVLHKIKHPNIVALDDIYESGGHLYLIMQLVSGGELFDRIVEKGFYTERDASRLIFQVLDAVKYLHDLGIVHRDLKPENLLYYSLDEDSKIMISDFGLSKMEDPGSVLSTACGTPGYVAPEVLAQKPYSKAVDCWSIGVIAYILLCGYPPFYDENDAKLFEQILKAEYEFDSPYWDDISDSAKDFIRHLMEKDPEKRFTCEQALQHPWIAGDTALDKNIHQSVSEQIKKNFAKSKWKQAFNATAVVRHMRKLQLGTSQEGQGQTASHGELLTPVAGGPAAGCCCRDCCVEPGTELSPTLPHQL
T6 sequence (Q15418 whole entry): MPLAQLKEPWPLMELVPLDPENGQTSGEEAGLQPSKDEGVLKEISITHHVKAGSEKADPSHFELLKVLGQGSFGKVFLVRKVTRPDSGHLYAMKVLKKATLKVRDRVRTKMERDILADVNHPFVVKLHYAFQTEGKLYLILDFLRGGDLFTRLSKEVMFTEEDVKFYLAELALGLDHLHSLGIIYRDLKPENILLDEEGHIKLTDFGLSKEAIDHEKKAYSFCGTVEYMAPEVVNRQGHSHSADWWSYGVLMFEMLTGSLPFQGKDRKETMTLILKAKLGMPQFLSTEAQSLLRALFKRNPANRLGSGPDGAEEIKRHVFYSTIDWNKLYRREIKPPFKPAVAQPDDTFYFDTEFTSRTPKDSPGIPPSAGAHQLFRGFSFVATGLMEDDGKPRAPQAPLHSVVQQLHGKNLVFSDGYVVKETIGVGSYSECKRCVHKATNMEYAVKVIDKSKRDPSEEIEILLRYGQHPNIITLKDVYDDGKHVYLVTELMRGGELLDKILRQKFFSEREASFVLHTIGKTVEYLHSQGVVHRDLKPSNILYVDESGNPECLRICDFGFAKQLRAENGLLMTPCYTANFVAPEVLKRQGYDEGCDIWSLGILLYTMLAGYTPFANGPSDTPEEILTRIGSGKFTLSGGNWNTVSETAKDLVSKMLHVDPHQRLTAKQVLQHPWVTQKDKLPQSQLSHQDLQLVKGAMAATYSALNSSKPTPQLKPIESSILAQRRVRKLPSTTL
Sequence of NEK7 (Q8TDX7 whole entry): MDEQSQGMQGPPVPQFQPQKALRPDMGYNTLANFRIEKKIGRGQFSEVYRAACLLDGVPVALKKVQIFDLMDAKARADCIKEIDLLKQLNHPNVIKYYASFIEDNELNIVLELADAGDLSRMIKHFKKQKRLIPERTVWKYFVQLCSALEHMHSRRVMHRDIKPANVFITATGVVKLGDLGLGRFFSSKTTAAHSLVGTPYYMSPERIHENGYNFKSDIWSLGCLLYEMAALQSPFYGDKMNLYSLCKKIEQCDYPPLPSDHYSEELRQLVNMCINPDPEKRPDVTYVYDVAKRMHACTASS
Sequence of LIMK2 (P53671 whole entry): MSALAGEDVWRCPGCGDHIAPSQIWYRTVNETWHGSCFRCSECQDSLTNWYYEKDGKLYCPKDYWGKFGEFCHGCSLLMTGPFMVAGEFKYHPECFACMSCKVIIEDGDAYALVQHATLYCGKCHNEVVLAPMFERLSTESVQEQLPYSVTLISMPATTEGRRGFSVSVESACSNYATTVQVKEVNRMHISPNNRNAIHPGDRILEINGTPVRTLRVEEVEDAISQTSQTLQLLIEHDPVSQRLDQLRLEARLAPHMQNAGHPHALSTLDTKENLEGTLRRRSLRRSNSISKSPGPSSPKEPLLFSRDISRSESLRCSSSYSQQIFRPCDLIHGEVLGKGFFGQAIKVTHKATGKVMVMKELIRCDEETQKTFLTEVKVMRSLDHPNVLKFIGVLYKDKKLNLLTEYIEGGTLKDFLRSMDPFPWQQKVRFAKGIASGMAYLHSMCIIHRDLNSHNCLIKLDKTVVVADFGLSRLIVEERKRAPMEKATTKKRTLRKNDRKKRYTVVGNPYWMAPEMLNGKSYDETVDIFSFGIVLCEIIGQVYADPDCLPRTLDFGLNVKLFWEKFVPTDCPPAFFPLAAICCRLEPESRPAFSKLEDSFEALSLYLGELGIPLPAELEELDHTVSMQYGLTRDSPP
Sequence of MST1R (Q04912 whole entry): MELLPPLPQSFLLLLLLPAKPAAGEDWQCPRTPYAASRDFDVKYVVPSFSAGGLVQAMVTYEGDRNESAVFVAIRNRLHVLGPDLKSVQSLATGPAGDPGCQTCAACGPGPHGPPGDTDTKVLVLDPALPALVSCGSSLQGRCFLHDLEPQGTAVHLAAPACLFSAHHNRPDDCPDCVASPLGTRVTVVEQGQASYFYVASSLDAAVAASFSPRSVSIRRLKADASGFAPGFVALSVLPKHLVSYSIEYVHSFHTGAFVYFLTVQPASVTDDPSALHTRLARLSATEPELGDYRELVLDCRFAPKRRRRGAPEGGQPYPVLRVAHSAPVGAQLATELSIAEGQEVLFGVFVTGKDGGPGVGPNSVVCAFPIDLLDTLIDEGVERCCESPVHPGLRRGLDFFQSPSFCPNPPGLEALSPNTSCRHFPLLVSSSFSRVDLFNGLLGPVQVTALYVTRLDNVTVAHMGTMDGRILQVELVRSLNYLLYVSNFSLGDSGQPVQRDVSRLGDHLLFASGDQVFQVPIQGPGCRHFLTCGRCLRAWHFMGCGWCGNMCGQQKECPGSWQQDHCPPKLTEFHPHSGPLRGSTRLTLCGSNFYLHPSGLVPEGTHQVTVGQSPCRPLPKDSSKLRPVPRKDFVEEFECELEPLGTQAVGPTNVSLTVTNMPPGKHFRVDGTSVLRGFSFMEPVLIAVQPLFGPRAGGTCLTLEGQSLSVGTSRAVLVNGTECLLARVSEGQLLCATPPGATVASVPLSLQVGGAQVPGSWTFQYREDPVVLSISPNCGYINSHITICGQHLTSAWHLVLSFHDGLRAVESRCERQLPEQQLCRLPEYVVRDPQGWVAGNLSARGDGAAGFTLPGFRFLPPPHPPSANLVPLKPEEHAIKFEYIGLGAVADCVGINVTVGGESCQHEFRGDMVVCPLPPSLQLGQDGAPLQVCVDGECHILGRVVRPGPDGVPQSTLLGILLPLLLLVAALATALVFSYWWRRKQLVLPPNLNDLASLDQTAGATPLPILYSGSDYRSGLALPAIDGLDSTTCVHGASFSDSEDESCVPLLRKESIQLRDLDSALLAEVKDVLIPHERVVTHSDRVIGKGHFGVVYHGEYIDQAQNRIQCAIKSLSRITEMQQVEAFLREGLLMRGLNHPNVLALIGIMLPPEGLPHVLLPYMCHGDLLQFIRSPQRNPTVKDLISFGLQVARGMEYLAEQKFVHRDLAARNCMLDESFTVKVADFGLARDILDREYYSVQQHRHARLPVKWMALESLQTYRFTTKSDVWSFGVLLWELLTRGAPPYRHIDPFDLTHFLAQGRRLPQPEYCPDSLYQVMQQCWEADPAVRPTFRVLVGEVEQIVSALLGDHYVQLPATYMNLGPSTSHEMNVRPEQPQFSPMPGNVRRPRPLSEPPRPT

For `C=C(C)[C@H]1CC=C(C)C(=O)C1` [S-carvone], the remaining binding at 100 µM in [1] stood at 74%; in [2] it was 69%; in test [3] it was 51%; in [4], 90%; in test [5], 100%; in [6] it was 49%. In addition, the remaining binding at 100 µM in [7] worked out at 65%; in test [8] it was 74%; in test [9], 78%; in [10], 72%; in [11], 84%; in test [12], 85%. Besides, the remaining binding at 100 µM worked out at 65% in test [13]; 89% in [14]; 82% in test [15]; 71% in test [16]; 91% in [17]; 83% in [18]. Moreover, the remaining binding at 100 µM in test [19] amounted to 93%; in [20], 82%; in test [21] it was 75%; in [22] it was 91%.
